Source: patent US5840684A, “Glycopeptide antibiotic derivatives” (Eli Lilly and Company, priority 1995, dated 1998)
Converted amounts (≈) assume the structure as drawn.

How the values were obtained:
[1] = tested on: Entercoccus faecium 180-1; assay: broth micro-dilution MIC; format: cell-based
Procedure: (§1) The MIC's were determined using a standard broth micro-dilution assay.

[2] = tested on: Staphylococcus aureus X400; assay: broth micro-dilution MIC; format: cell-based
Procedure: as §1

[3] = tested on: Staphylococcus aureus SA1199; assay: broth micro-dilution MIC; format: cell-based
Procedure: as §1

[4] = tested on: Streptococcus pyogenes C203; assay: broth micro-dilution MIC; format: cell-based
Procedure: as §1

[5] = tested on: Staphylococcus aureus X778; assay: broth micro-dilution MIC; format: cell-based
Procedure: as §1

[6] = tested on: vancomycin-resistant enterococci; assay: broth micro-dilution, mean geometric MIC; format: cell-based, Enterococcus faecium and Enterococcus faecalis; conditions: enterococci, 24-hour incubation
[7] = tested on: Staphylococcus haemolyticus 415; assay: broth micro-dilution MIC; format: cell-based
Procedure: (§2) The formula I compounds have in vitro and in vivo activity against Gram-positive pathogenic bacteria. The MIC's were determined using a standard broth micro-dilution assay.

[8] = tested on: Enterococcus gallinarum 245; assay: broth micro-dilution MIC; format: cell-based; conditions: Enterococcus gallinarum 245
Procedure: as §2

[9] = tested on: Staphylococcus haemolyticus 105; assay: broth micro-dilution MIC; format: cell-based
Procedure: as §2

Entercoccus faecium 180 = assay: broth micro-dilution MIC; format: cell-based; conditions: Entercoccus faecium 180
Procedure: as §2

Escherichia coli EC14 = assay: broth micro-dilution MIC; format: cell-based
Procedure: as §2

[10] = tested on: Streptococcus pneumoniae P1; assay: broth micro-dilution MIC; format: cell-based
Procedure: as §2

[11] = tested on: Staphylococcus aureus SA1199B; format: cell-based
Procedure: as §1

[12] = tested on: Staphylococcus aureus 491; assay: broth micro-dilution MIC; format: cell-based
Procedure: as §1

[13] = tested on: Staphylococcus aureus SA1199A; assay: broth micro-dilution MIC; format: cell-based
Procedure: as §1

[14] = tested on: Staphylococcus aureus 447; assay: broth micro-dilution MIC; format: cell-based
Procedure: as §1

Entercoccus faecium 276 = assay: broth micro-dilution MIC; format: cell-based
Procedure: as §1

[15] = tested on: Staphylococcus aureus 489; assay: broth micro-dilution MIC; format: cell-based
Procedure: as §1

[16] = tested on: Staphylococcus aureus 446; assay: broth micro-dilution MIC; format: cell-based
Procedure: as §1

[17] = tested on: vancomycin-susceptible enterococci; assay: broth micro-dilution, mean geometric MIC; format: cell-based, Enterococcus faecium and Enterococcus faecalis; conditions: enterococci, 24-hour incubation
Entercoccus faecium 2041 = assay: broth micro-dilution MIC; format: cell-based; conditions: Entercoccus faecium 2041
Procedure: as §2

[18] = tested on: Staphylococcus epidermidis 270; assay: broth micro-dilution MIC; format: cell-based
Procedure: as §2

[19] = tested on: Haemophilus influenzae RD; assay: broth micro-dilution MIC; format: cell-based; conditions: Haemophilus influenzae RD
Procedure: as §2

[20] = tested on: Staphylococcus aureus S13E; format: cell-based
Procedure: as §1

| Structure (SMILES) | MIC [1] [µg/mL] | MIC [2] [µg/mL] | MIC [3] [µg/mL] | MIC [4] [µg/mL] | MIC [5] [µg/mL] | mean geometric MIC, Vancomycin Resistant Strains [6] [µg/mL] | MIC [7] [µg/mL] | MIC [8] [µg/mL] | MIC [9] [µg/mL] | MIC (Entercoccus faecium 180) [µg/mL] | MIC [10] [µg/mL] | MIC [11] [µg/mL] | MIC [12] [µg/mL] | MIC [13] [µg/mL] | MIC [14] [µg/mL] | MIC (Entercoccus faecium 276) [µg/mL] | MIC [15] [µg/mL] | MIC [16] [µg/mL] | mean geometric MIC, Vancomycin Sensitive Strains [17] [µg/mL] | MIC (Entercoccus faecium 2041) [µg/mL] | further results |
| --- | --- | --- | --- | --- | --- | --- | --- | --- | --- | --- | --- | --- | --- | --- | --- | --- | --- | --- | --- | --- | --- |
| CNC(CC(C)C)C(=O)NC1C(=O)NC(CC(N)=O)C(=O)NC2C(=O)NC3C(=O)NC(C(=O)NC(C(=O)O)c4cc(O)cc(O)c4-c4cc3ccc4O)C(OC3CC(C)(N)C(O)C(C)O3)c3ccc(c(Cl)c3)Oc3cc2cc(c3OC2OC(CO)C(O)C(O)C2OC2CC(C)(NCc3c(C)c(C)c(C)c(C)c3C)C(O)C(C)O2)Oc2ccc(cc2Cl)C1O (stereo not shown) [Compound 73] | ≤ 0.06 | 0.5 (≈ 0.285 µM) | 0.5 (≈ 0.285 µM) | ≤ 0.06 | 1 (≈ 0.571 µM) | 11 | 2 (≈ 1.14 µM) | 2 (≈ 1.14 µM) | 0.5 (≈ 0.285 µM) | 0.5 (≈ 0.285 µM) | ≤ 0.06 | ≤ 0.06 | – | – | – | – | – | – | – | – | MIC (Escherichia coli EC14): > 64 µg/mL |
| CNC(CC(C)C)C(=O)NC1C(=O)NC(CC(N)=O)C(=O)NC2C(=O)NC3C(=O)NC(C(=O)NC(C(=O)O)c4cc(O)cc(O)c4-c4cc3ccc4O)C(OC3CC(C)(N)C(O)C(C)O3)c3ccc(c(Cl)c3)Oc3cc2cc(c3OC2OC(CO)C(O)C(O)C2OC2CC(C)(NCCCCCCCCCCc3ccccc3)C(O)C(C)O2)Oc2ccc(cc2Cl)C1O (stereo not shown) [Compound 197] | 0.25 (≈ 0.138 µM) | 2 (≈ 1.11 µM) | 2 (≈ 1.11 µM) | ≤ 0.06 | 2 (≈ 1.11 µM) | 1.2 | 4 (≈ 2.21 µM) | 4 (≈ 2.21 µM) | 1 (≈ 0.553 µM) | 0.5 (≈ 0.276 µM) | ≤ 0.06 | 2 (≈ 1.11 µM) | 1 (≈ 0.553 µM) | 1 (≈ 0.553 µM) | 2 (≈ 1.11 µM) | 1 (≈ 0.553 µM) | 2 (≈ 1.11 µM) | 1 (≈ 0.553 µM) | 0.16 | 0.25 (≈ 0.138 µM) | MIC [18]: 0.5 µg/mL (≈ 0.276 µM); MIC [19]: 32 µg/mL (≈ 17.7 µM); MIC [20]: 2 µg/mL (≈ 1.11 µM) |
| CNC(CC(C)C)C(=O)NC1C(=O)NC(CC(N)=O)C(=O)NC2C(=O)NC3C(=O)NC(C(=O)NC(C(=O)O)c4cc(O)cc(O)c4-c4cc3ccc4O)C(OC3CC(C)(N)C(O)C(C)O3)c3ccc(c(Cl)c3)Oc3cc2cc(c3OC2OC(CO)C(O)C(O)C2OC2CC(C)(NCCCCCCCCBr)C(O)C(C)O2)Oc2ccc(cc2Cl)C1O (stereo not shown) [Compound 198] | ≤ 0.06 | 0.5 (≈ 0.28 µM) | 0.5 (≈ 0.28 µM) | ≤ 0.06 | 0.125 (≈ 0.0701 µM) | 3.4 | 1 (≈ 0.561 µM) | 1 (≈ 0.561 µM) | 0.5 (≈ 0.28 µM) | ≤ 0.06 | ≤ 0.06 | 0.5 (≈ 0.28 µM) | ≤ 0.06 | ≤ 0.06 | 0.125 (≈ 0.0701 µM) | 0.25 (≈ 0.14 µM) | 0.125 (≈ 0.0701 µM) | 1 (≈ 0.561 µM) | 0.062 | ≤ 0.06 | MIC [18]: 0.25 µg/mL (≈ 0.14 µM); MIC [19]: 32 µg/mL (≈ 17.9 µM); MIC [20]: 0.125 µg/mL (≈ 0.0701 µM) |
| CNC(CC(C)C)C(=O)NC1C(=O)NC(CC(N)=O)C(=O)NC2C(=O)NC3C(=O)NC(C(=O)NC(C(=O)O)c4cc(O)cc(O)c4-c4cc3ccc4O)C(OC3CC(C)(N)C(O)C(C)O3)c3ccc(c(Cl)c3)Oc3cc2cc(c3OC2OC(CO)C(O)C(O)C2OC2CC(C)(NCCCCCCCCOc3ccc(Oc4ccccc4)cc3)C(O)C(C)O2)Oc2ccc(cc2Cl)C1O (stereo not shown) [Compound 202] | 0.5 (≈ 0.265 µM) | 4 (≈ 2.12 µM) | 8 (≈ 4.24 µM) | ≤ 0.06 | 4 (≈ 2.12 µM) | 1.4 | 8 (≈ 4.24 µM) | 8 (≈ 4.24 µM) | 4 (≈ 2.12 µM) | 0.5 (≈ 0.265 µM) | ≤ 0.06 | 8 (≈ 4.24 µM) | 4 (≈ 2.12 µM) | 2 (≈ 1.06 µM) | 8 (≈ 4.24 µM) | 4 (≈ 2.12 µM) | 4 (≈ 2.12 µM) | 4 (≈ 2.12 µM) | 0.76 | 1 (≈ 0.529 µM) | MIC [18]: 4 µg/mL (≈ 2.12 µM); MIC [19]: 32 µg/mL (≈ 16.9 µM); MIC [20]: 4 µg/mL (≈ 2.12 µM) |
| CNC(CC(C)C)C(=O)NC1C(=O)NC(CC(N)=O)C(=O)NC2C(=O)NC3C(=O)NC(C(=O)NC(C(=O)O)c4cc(O)cc(O)c4-c4cc3ccc4O)C(OC3CC(C)(N)C(O)C(C)O3)c3ccc(c(Cl)c3)Oc3cc2cc(c3OC2OC(CO)C(O)C(O)C2OC2CC(C)(NCc3cccc(Oc4cccc(C(F)(F)F)c4)c3)C(O)C(C)O2)Oc2ccc(cc2Cl)C1O (stereo not shown) [Compound 203] | ≤ 0.06 | 1 (≈ 0.543 µM) | 2 (≈ 1.09 µM) | ≤ 0.06 | 1 (≈ 0.543 µM) | 1.0 | 2 (≈ 1.09 µM) | 2 (≈ 1.09 µM) | 1 (≈ 0.543 µM) | 0.125 (≈ 0.0678 µM) | ≤ 0.06 | 1 (≈ 0.543 µM) | 1 (≈ 0.543 µM) | 0.5 (≈ 0.271 µM) | 1 (≈ 0.543 µM) | 0.5 (≈ 0.271 µM) | 0.5 (≈ 0.271 µM) | 0.5 (≈ 0.271 µM) | 0.036 | 0.25 (≈ 0.136 µM) | MIC [18]: 0.5 µg/mL (≈ 0.271 µM); MIC [19]: 16 µg/mL (≈ 8.68 µM); MIC [20]: 2 µg/mL (≈ 1.09 µM) |
| CNC(CC(C)C)C(=O)NC1C(=O)NC(CC(N)=O)C(=O)NC2C(=O)NC3C(=O)NC(C(=O)NC(C(=O)O)c4cc(O)cc(O)c4-c4cc3ccc4O)C(OC3CC(C)(N)C(O)C(C)O3)c3ccc(c(Cl)c3)Oc3cc2cc(c3OC2OC(CO)C(O)C(O)C2OC2CC(C)(NCc3ccc(OCCCCCCc4ccccc4)cc3)C(O)C(C)O2)Oc2ccc(cc2Cl)C1O (stereo not shown) [Compound 219] | 1 (≈ 0.538 µM) | 8 (≈ 4.3 µM) | 4 (≈ 2.15 µM) | ≤ 0.06 | 8 (≈ 4.3 µM) | 0.71 | 2 (≈ 1.08 µM) | 2 (≈ 1.08 µM) | 2 (≈ 1.08 µM) | 1 (≈ 0.538 µM) | ≤ 0.06 | 8 (≈ 4.3 µM) | 4 (≈ 2.15 µM) | 1 (≈ 0.538 µM) | 8 (≈ 4.3 µM) | 2 (≈ 1.08 µM) | 8 (≈ 4.3 µM) | 8 (≈ 4.3 µM) | 0.044 | 2 (≈ 1.08 µM) | MIC [18]: 4 µg/mL (≈ 2.15 µM); MIC [19]: 32 µg/mL (≈ 17.2 µM); MIC [20]: 8 µg/mL (≈ 4.3 µM) |
| CNC(CC(C)C)C(=O)NC1C(=O)NC(CC(N)=O)C(=O)NC2C(=O)NC3C(=O)NC(C(=O)NC(C(=O)O)c4cc(O)cc(O)c4-c4cc3ccc4O)C(OC3CC(C)(N)C(O)C(C)O3)c3ccc(c(Cl)c3)Oc3cc2cc(c3OC2OC(CO)C(O)C(O)C2OC2CC(C)(NCCCCCCCCCC#Cc3ccccc3)C(O)C(C)O2)Oc2ccc(cc2Cl)C1O (stereo not shown) [Compound 236] | 1 (≈ 0.55 µM) | 2 (≈ 1.1 µM) | 4 (≈ 2.2 µM) | ≤ 0.06 | 2 (≈ 1.1 µM) | 1.4 | 4 (≈ 2.2 µM) | 4 (≈ 2.2 µM) | 4 (≈ 2.2 µM) | 1 (≈ 0.55 µM) | ≤ 0.06 | 4 (≈ 2.2 µM) | 4 (≈ 2.2 µM) | 2 (≈ 1.1 µM) | 4 (≈ 2.2 µM) | 2 (≈ 1.1 µM) | 4 (≈ 2.2 µM) | 1 (≈ 0.55 µM) | 0.5 | 1 (≈ 0.55 µM) | MIC [18]: 2 µg/mL (≈ 1.1 µM); MIC [19]: 32 µg/mL (≈ 17.6 µM); MIC [20]: 4 µg/mL (≈ 2.2 µM) |
